Some test systems named below: M19-MEL melanoma; DMS 273 small cell lung; KM20L2 colon; XF 498 CNS; HOP-18 NSCLC; MCF7 breast; DU-145 prostate; NCI/ADR-RES ovarian; MDA-MB-435; BT-549 breast.
Common to all, as to assay: inhibition of tumour cell growth, NCI panel, 48 h

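These data come from cells grown in 96-well plates and exposed to compound for 48 hours at five concentrations. At the GI50, growth is halved. TGI marks complete inhibition of growth.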 Some results are limits rather than exact numbers.

As for `CC(=O)Nc1[nH]c(=O)[nH]c(=O)c1N(C(C)=O)C(C)=O`, the TGI with M19-MEL melanoma, in the test on DMS 273 small cell lung, in the test with KM20L2 colon and in the test with XF 498 CNS was over 100 µM throughout.

Consider `COc1ccc(/C=C/CO)cc1OC`, for which the TGI in the test with M19-MEL melanoma, with DMS 273 small cell lung and with KM20L2 colon was over 100 µM throughout.

With `Clc1ccc(CCN2CCOCC2)c(Cl)c1`, the TGI in the test on M19-MEL melanoma, in the test on HOP-18 NSCLC, in the test on KM20L2 colon and in the test with XF 498 CNS was over 100 µM throughout.

`CCCC/C(C)=N/NC(N)=S`: the TGI in the test on M19-MEL melanoma, with HOP-18 NSCLC and in the test with KM20L2 colon was over 100 µM throughout.

Consider `CCCCCCCCSC(SCCCCCCCC)=C1C(=O)N(c2ccccc2)N=C1C`, for which the TGI in the test with M19-MEL melanoma, in the test on HOP-18 NSCLC, in the test with DMS 273 small cell lung and with KM20L2 colon was over 100 µM each time.

Take `C[P+](C)(CC(F)(F)F)c1ccccc1`: the TGI in the test with M19-MEL melanoma, in the test with HOP-18 NSCLC, in the test on DMS 273 small cell lung and in the test on KM20L2 colon was over 100 µM each time.

On to `C/C(=N\N=C(N)N)c1sc(-c2nc(C)c(/C(C)=N/N=C(N)N)s2)nc1C`, for which the TGI with M19-MEL melanoma, in the test on HOP-18 NSCLC, in the test on DMS 273 small cell lung, in the test on KM20L2 colon and with XF 498 CNS was over 100 µM each time.

`O=[N+]([O-])C(=C(c1ccccc1)c1ccccc1)[N+](=O)[O-]`: the TGI was determined as 22.5 µM in the test on DMS 273 small cell lung and 32.1 µM with KM20L2 colon.

As to `Nc1nc(Cl)cc(NCCCCCCCCCCNc2cc(Cl)nc(N)n2)n1`, the TGI is over 100 µM with M19-MEL melanoma; over 100 µM in the test on HOP-18 NSCLC; over 100 µM in the test on DMS 273 small cell lung; over 100 µM with KM20L2 colon; 8.86 µM in the test with XF 498 CNS.

Regarding `N#CC(/C(=N\NC(N)=S)C(=O)NC1C2CC3CC(C2)CC1C3)c1ccc(Cl)cc1` (stereo not drawn), the TGI with M19-MEL melanoma, with HOP-18 NSCLC, in the test on DMS 273 small cell lung, with KM20L2 colon and with XF 498 CNS was over 100 µM in each case.

On to `Cc1cc(Br)cc(C)c1NC(=O)C(=O)C(C(=O)c1ccc(Cl)c(Cl)c1)C1OC(=O)c2ccccc21` (stereo not drawn), for which the TGI in the test on M19-MEL melanoma, with DMS 273 small cell lung and with KM20L2 colon was over 100 µM throughout.

Turning to `c1ccc(CN(Cc2ccccn2)Cn2cccn2)nc1`, the TGI in the test on M19-MEL melanoma, in the test on DMS 273 small cell lung, in the test with KM20L2 colon and in the test on XF 498 CNS was over 100 µM in each case.

For `Cc1ccc(NC(=O)NC23CC4CC(CC(F)(C4)C2)C3)cc1`, the TGI in the test on M19-MEL melanoma, in the test with DMS 273 small cell lung, in the test with KM20L2 colon and in the test with XF 498 CNS was over 100 µM throughout.

As to `Cc1ccc(C)c2sc3cc(=O)ccc-3nc12`, the TGI was 31.1 µM with M19-MEL melanoma, over 100 µM in the test with HOP-18 NSCLC, over 100 µM in the test on DMS 273 small cell lung and over 100 µM in the test on KM20L2 colon.

As to `CC1=C[C@H]2C[C@@]3(C)O[C@@H]([C@]4(C)CC[C@H]([C@@H](C)C(=O)O)OO4)CC3C(C)(C)[C@H]2CC1` (stereo partly drawn), the TGI was 3.3 µM with M19-MEL melanoma, 1.74 µM in the test on DMS 273 small cell lung, 3.91 µM in the test with KM20L2 colon and 0.234 µM with XF 498 CNS.

In the case of `C(=C1/CCCCC([n+]2ccccc2)=N1)/c1ccccc1`, the TGI in the test on M19-MEL melanoma, in the test with HOP-18 NSCLC, in the test on DMS 273 small cell lung and with KM20L2 colon was over 100 µM each time.

Consider `COc1ccc2c(c1)[n+]([O-])c(-c1ccc(Cl)c(Cl)c1)c(N)[n+]2[O-]`, for which the TGI with M19-MEL melanoma is over 100 µM; with HOP-18 NSCLC, over 100 µM; with DMS 273 small cell lung, 66.7 µM; with KM20L2 colon, over 100 µM.

As to `COc1ccc(-c2nc(N)nc(-c3cc(C)ccc3O)c2Cl)cc1`, the TGI in the test with M19-MEL melanoma is over 100 µM; with HOP-18 NSCLC, over 100 µM; in the test on DMS 273 small cell lung, over 100 µM; in the test with KM20L2 colon it was over 100 µM; in the test on XF 498 CNS, 64.3 µM.

In the case of `Cc1ccc(C)c(NC(=O)CCc2n[nH]c(=S)o2)c1`, the TGI in the test on M19-MEL melanoma, in the test on HOP-18 NSCLC, in the test with DMS 273 small cell lung, with KM20L2 colon and with XF 498 CNS was over 100 µM in each case.

For `COc1ccc(CNc2cnc3cc(N)ccc3n2)cc1OC`, the TGI with M19-MEL melanoma and in the test with DMS 273 small cell lung was over 100 µM throughout.

Regarding `O=C(O)c1oc2ccc([N+](=O)[O-])c3c2c1CCC3`, the TGI in the test with M19-MEL melanoma, with HOP-18 NSCLC, in the test with DMS 273 small cell lung, with KM20L2 colon and with XF 498 CNS was over 100 µM each time.

Consider `COc1ccccc1OCC(COC(=O)Nc1ccc(C)cc1)OC(=O)Nc1ccc(C)cc1` (stereo not drawn), for which the TGI turned out to be 40.3 µM in the test with HOP-18 NSCLC, 32 µM in the test on DMS 273 small cell lung and 50 µM in the test on KM20L2 colon.

Turning to `OCC(O)C(OC1OC(CO)C(O)C(O)C1O)c1nn(-c2ccc(F)cc2)c2nc3cc(Cl)c(Cl)cc3cc12` (stereo not drawn), the TGI in the test on M19-MEL melanoma, with KM20L2 colon and with XF 498 CNS was over 100 µM in each case.

Consider `CC1=NN(C(=O)Cc2ccccc2)C(=O)/C1=C\c1cccc(O)c1`, for which the TGI in the test on M19-MEL melanoma, in the test on HOP-18 NSCLC, in the test on DMS 273 small cell lung and in the test with XF 498 CNS was over 100 µM each time.

Regarding `Cc1ccc(NC(=O)CCC(=O)C(C#N)c2ccc(Cl)cc2)cc1C` (stereo not drawn), the TGI with M19-MEL melanoma, in the test on HOP-18 NSCLC, with DMS 273 small cell lung, in the test with KM20L2 colon and with XF 498 CNS was over 100 µM in each case.

As to `COc1ccccc1OCC(O)CO` (stereo not drawn), the GI50 with MCF7 breast, in the test on DU-145 prostate, with NCI/ADR-RES ovarian, in the test with MDA-MB-435 and in the test with BT-549 breast was over 100 µM each time. Moreover, the TGI with MCF7 breast, with DU-145 prostate, in the test on NCI/ADR-RES ovarian, in the test with MDA-MB-435 and with BT-549 breast was over 100 µM in each case.

Turning to `O=C(O)CNS(=O)(=O)c1ccc(NC(=O)c2cccc([N+](=O)[O-])c2)cc1`, the TGI with M19-MEL melanoma, in the test with HOP-18 NSCLC, in the test with DMS 273 small cell lung, in the test on KM20L2 colon and in the test with XF 498 CNS was over 100 µM in each case.

For the origin of these results see PubChem BioAssay (NCI).
